Patent US9206188B2, “Substituted pyrrolo[2,3-b]pyridines as ITK and JAK inhibitors” (Arrien Pharmaceuticals LLC, priority 2013, dated 2015)
Where two headings read alike, the source gives them in different places.

Assays:
[1] = molecular target: ITK (Homo sapiens (Human), UniProt Q08881); assay: ITK kinase assay (radiometric filter binding, 10 μM ATP); assay type: biochemical
Procedure: (§1) All additions were done on ice, followed by the addition of ATP mix. Wells were uniformly mixed using an Eppendorff plate shaker and incubated at 30° C. for 20 min, and stopped by the addition of 5 μL of 3% phosphoric acid. Volume was increased to 100 μL by adding 0.8% phosphoric acid which was then transferred to PC filter mats (Millipore), pre-equilibrated with 70% ethanol and water. Plates were washed thrice with 100 μL 0.8% phosphoric acid and dried for an hour at 60° C. 100 μL scintillation fluid was added into each well and reading taken in Perkin Elmer TOPCOUNT beta counter.
(§2) The reactions were carried out at 10 μM ATP for ITK, JAK3 and other TEC and Janus family of kinase.

[2] = molecular target: JAK3 (Homo sapiens (Human), UniProt P52333); assay: JAK3 kinase assay (radiometric filter binding, 10 μM ATP); assay type: biochemical
Procedure: as §1, §2

[3] = 10-dose IC50 mode, 10 μM ATP, read-out: ITK kinase inhibition
[4] = 10-dose IC50 mode, 10 μM ATP, read-out: JAK3 kinase inhibition
[5] = read-out: biochemical IC50 against ITK
[6] = read-out: biochemical IC50 against JAK3

Sequence of JAK3 (P52333 whole entry): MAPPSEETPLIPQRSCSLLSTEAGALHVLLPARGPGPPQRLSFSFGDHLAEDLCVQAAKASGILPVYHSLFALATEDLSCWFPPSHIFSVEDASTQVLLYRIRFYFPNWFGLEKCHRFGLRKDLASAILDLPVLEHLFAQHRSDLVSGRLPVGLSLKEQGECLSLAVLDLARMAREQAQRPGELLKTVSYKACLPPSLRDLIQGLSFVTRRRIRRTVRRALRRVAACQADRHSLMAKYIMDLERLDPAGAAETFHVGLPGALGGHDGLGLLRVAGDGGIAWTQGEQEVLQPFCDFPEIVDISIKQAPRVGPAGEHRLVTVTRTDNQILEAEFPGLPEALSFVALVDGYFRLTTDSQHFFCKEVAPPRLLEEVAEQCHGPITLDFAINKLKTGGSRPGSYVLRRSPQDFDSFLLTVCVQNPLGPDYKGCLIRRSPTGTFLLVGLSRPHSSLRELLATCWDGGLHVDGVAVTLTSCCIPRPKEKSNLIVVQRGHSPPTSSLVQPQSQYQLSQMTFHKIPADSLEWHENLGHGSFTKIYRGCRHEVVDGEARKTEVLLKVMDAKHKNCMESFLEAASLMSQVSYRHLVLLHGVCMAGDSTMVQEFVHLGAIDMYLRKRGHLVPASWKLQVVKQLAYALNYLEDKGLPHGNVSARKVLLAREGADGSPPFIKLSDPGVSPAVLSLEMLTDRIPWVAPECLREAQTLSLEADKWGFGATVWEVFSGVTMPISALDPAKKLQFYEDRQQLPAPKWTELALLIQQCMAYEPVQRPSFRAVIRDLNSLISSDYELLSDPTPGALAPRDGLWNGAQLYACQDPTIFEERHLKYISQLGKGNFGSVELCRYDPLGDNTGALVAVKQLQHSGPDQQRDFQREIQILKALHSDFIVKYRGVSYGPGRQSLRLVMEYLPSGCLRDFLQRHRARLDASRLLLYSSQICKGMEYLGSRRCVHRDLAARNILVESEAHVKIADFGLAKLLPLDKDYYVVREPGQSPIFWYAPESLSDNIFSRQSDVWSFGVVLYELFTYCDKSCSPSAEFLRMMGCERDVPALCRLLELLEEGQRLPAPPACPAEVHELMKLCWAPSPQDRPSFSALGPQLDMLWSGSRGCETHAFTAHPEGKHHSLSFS
Sequence of ITK (Q08881 whole entry): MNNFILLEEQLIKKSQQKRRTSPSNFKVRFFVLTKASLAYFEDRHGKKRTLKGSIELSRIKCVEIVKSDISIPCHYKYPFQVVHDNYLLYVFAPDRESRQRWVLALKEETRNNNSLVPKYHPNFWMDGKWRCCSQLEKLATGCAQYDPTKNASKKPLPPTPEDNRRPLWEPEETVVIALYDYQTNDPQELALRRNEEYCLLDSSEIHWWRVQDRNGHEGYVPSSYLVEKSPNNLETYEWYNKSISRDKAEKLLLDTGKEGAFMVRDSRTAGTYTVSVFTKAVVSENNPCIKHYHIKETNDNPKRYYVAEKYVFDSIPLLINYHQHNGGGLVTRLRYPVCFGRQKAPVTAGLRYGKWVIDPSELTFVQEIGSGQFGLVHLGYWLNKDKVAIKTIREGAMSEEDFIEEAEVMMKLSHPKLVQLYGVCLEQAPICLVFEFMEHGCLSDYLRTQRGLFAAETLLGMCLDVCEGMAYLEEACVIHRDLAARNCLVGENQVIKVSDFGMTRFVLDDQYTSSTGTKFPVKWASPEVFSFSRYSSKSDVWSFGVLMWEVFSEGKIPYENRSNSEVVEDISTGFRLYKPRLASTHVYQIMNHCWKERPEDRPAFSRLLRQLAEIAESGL

For `C=CC(=O)Nc1cccc(-c2cnc3[nH]nc(C)c3c2)c1` [Example 1, N-(3-(3-methyl-1H-pyrazolo[3,4-b]pyridin-5-yl)phenyl)acrylamide], the IC50 [1, 3] was > 1000 nM and the IC50 [2, 4] was > 1000 nM.
`C=CC(=O)Nc1cccc(-c2cnc3[nH]cc(-c4cc5ccc(C)cc5[nH]4)c3n2)c1` [Example 2, N-(3-(7-(6-methyl-1H-indol-2-yl)-5H-pyrrolo[2,3-b]pyrazin-2-yl)phenyl)acrylamide] was tested, and the IC50 [1, 3] was > 100 nM and the IC50 [2, 4] was > 100 nM.
`C=CC(=O)Nc1cccc(-c2cnc3[nH]cc(-c4cc5ccccc5[nH]4)c3n2)c1` [Example 5, N-(3-(7-(1H-indol-2-yl)-5H-pyrrolo[2,3-b]pyrazin-2-yl)phenyl)acrylamide] was tested, and the IC50 [1, 5] was 100 to 1000 nM and the IC50 [2, 6] was 100 to 1000 nM.
Compound `C=CC(=O)Nc1cccc(-c2cnc3[nH]cc(C)c3c2)c1` [Example 8, N-(3-(3-methyl-1H-pyrrolo[2,3-b]pyridin-5-yl)phenyl)acrylamide] has an IC50 [1, 5] of 100 to 1000 nM and an IC50 [2, 6] of 100 to 1000 nM.
With `C=CC(=O)Nc1cc(-c2cnc3[nH]cc(C)c3c2)ccc1Cl` [Example 15, N-(2-chloro-5-(3-methyl-1H-pyrrolo[2,3-b]pyridin-5-yl)phenyl)acrylamide] the IC50 [1, 3] was > 100 nM and the IC50 [2, 4] was > 100 nM.
With `C#CC1(C(=O)Nc2cccc(-c3cnc4[nH]cc(Cl)c4c3)c2)CC1` [Example 16, N-(3-(3-chloro-1H-pyrrolo[2,3-b]pyridin-5-yl)phenyl)-1-ethynylcyclopropanecarboxamide] the IC50 [1, 3] was > 1000 nM, the IC50 [1, 5] was 100 to 1000 nM and the IC50 [2, 4] was < 100 nM. For the same compound, the IC50 [2, 6] was 100 to 1000 nM.
`C=CC(=O)Nc1ccccc1-c1cnc2[nH]cc(C)c2c1` [Example 17, N-(2-(3-methyl-1H-pyrrolo[2,3-b]pyridin-5-yl)phenyl)acrylamide] was tested, and the IC50 [1, 3] was > 1000 nM and the IC50 [2, 4] was > 1000 nM.
`C=CC(=O)Nc1ccccc1-c1cnc2[nH]cc(Cl)c2c1` [Example 18, N-(2-(3-chloro-1H-pyrrolo[2,3-b]pyridin-5-yl)phenyl)acrylamide] was tested, and the IC50 [1, 3] was > 1000 nM and the IC50 [2, 4] was > 1000 nM.
`CC#CC(=O)Nc1cccc(-c2cnc3[nH]cc(Cl)c3c2)c1` [Example 19, N-(3-(3-chloro-1H-pyrrolo[2,3-b]pyridin-5-yl)phenyl)but-2-ynamide] was tested, and the IC50 [1, 3] was < 100 nM and the IC50 [2, 4] was < 100 nM.
With `C#CC(=O)Nc1cccc(-c2cnc3[nH]cc(Cl)c3c2)c1` [Example 20, N-(3-(3-chloro-1H-pyrrolo[2,3-b]pyridin-5-yl)phenyl)propiolamide] the IC50 [1, 3] was < 100 nM and the IC50 [2, 4] was < 100 nM.
With `CCC#CC(=O)Nc1cccc(-c2cnc3[nH]cc(Cl)c3c2)c1` [Example 21, N-(3-(3-chloro-1H-pyrrolo[2,3-b]pyridin-5-yl)phenyl)pent-2-ynamide] the IC50 [1, 3] was < 100 nM and the IC50 [2, 4] was < 100 nM.
In the case of `O=C(CF)Nc1cccc(-c2cnc3[nH]cc(Cl)c3c2)c1` [Example 22, N-(3-(3-chloro-1H-pyrrolo[2,3-b]pyridin-5-yl)phenyl)-2-fluoroacetamide], the IC50 [1, 3] is reported as > 1000 nM and the IC50 [2, 4] is reported as < 100 nM.
With `CC#CC(=O)Nc1cccc(-c2cnc3[nH]cc(C)c3c2)c1` [Example 23, N-(3-(3-methyl-1H-pyrrolo[2,3-b]pyridin-5-yl)phenyl)but-2-ynamide] the IC50 [1, 3] was < 100 nM and the IC50 [2, 4] was < 100 nM.
`CCC#CC(=O)Nc1cccc(-c2cnc3[nH]cc(C)c3c2)c1` [Example 24, N-(3-(3-methyl-1H-pyrrolo[2,3-b]pyridin-5-yl)phenyl)pent-2-ynamide] was tested, and the IC50 [1, 3] was > 100 nM and the IC50 [2, 4] was < 100 nM.
With `Cc1c[nH]c2ncc(-c3cccc(NC(=O)CF)c3)cc12` [Example 25, 2-fluoro-N-(3-(3-methyl-1H-pyrrolo[2,3-b]pyridin-5-yl)phenyl)acetamide] the IC50 [1, 3] was > 1000 nM and the IC50 [2, 4] was < 100 nM.
`C=CC(=O)Nc1cccc(-c2cnc3[nH]cc(-c4cccc(F)c4OC)c3c2)c1` [Example 26, N-(3-(3-(3-fluoro-2-methoxyphenyl)-1H-pyrrolo[2,3-b]pyridin-5-yl)phenyl)acrylamide] was tested, and the IC50 [1, 3] was < 100 nM and the IC50 [2, 4] was < 100 nM.
`C=CC(=O)Nc1cccc(-c2cnc3[nH]cc(-c4cccc(S(=O)(=O)N(C)C(C)(C)C)c4)c3c2)c1` [Example 27, N-(3-(3-(3-(N-(tert-butyl)-N-methylsulfamoyl)phenyl)-1H-pyrrolo[2,3-b]pyridin-5-yl)phenyl)acrylamide] was tested, and the IC50 [1, 3] was < 100 nM and the IC50 [2, 4] was < 100 nM.
In the case of `C=CC(=O)Nc1cccc(-c2cnc3[nH]cc(-c4cccc(C(=O)OCC)c4)c3c2)c1` [Example 29, ethyl 3-(5-(3-acrylamidophenyl)-1H-pyrrolo[2,3-b]pyridin-3-yl)benzoate], the IC50 [1, 3] is reported as < 100 nM and the IC50 [2, 4] is reported as < 100 nM.
In the case of `C=CC(=O)Nc1cccc(-c2cnc3[nH]cc(-c4cc(F)cc(F)c4OC)c3c2)c1` [Example 30, N-(3-(3-(3,5-difluoro-2-methoxyphenyl)-1H-pyrrolo[2,3-b]pyridin-5-yl)phenyl)acrylamide], the IC50 [1, 3] is reported as < 100 nM and the IC50 [2, 4] is reported as < 100 nM.
In the case of `CCC#CC(=O)Nc1cccc(-c2cnc3[nH]cc(-c4cccc(S(=O)(=O)N(C)C(C)(C)C)c4)c3c2)c1` [Example 32, N-(3-(3-(3-(N-(tert-butyl)-N-methylsulfamoyl)phenyl)-1H-pyrrolo[2,3-b]pyridin-5-yl)phenyl)pent-2-ynamide], the IC50 [1, 3] is reported as > 100 nM and the IC50 [2, 4] is reported as < 100 nM.
`C=CC(=O)Nc1cccc(-c2cnc3[nH]cc(-c4cccc(S(=O)(=O)N(C)C(C)(C)C)c4)c3n2)c1` [Example 33, N-(3-(7-(3-(N-(tert-butyl)-N-methylsulfamoyl)phenyl)-5H-pyrrolo[2,3-b]pyrazin-2-yl)phenyl)acrylamide] was tested, and the IC50 [1, 3] was < 100 nM and the IC50 [2, 4] was < 100 nM.
With `C=CC(=O)Nc1cccc(-c2cnc3[nH]cc(-c4cccc(S(=O)(=O)N(C)C)c4)c3c2)c1` [Example 34, N-(3-(3-(3-(N,N-dimethylsulfamoyl)phenyl)-1H-pyrrolo[2,3-b]pyridin-5-yl)phenyl)acrylamide] the IC50 [1, 3] was > 100 nM and the IC50 [2, 4] was > 100 nM.
With `C=CC(=O)Nc1cccc(-c2cnc3[nH]cc(-c4cccc(S(C)(=O)=O)c4)c3c2)c1` [Example 35, N-(3-(3-(3-(methylsulfonyl)phenyl)-1H-pyrrolo[2,3-b]pyridin-5-yl)phenyl)acrylamide] the IC50 [1, 3] was > 100 nM and the IC50 [2, 4] was > 100 nM.
With `C=CC(=O)Nc1cccc(-c2cnc3[nH]cc(-c4cccc(S(=O)(=O)CC)c4)c3c2)c1` [Example 36, N-(3-(3-(3-(ethylsulfonyl)phenyl)-1H-pyrrolo[2,3-b]pyridin-5-yl)phenyl)acrylamide] the IC50 [1, 3] was > 100 nM and the IC50 [2, 4] was > 100 nM.
In the case of `CCC#CC(=O)Nc1cccc(-c2cnc3[nH]cc(-c4cc(F)cc(F)c4OC)c3c2)c1` [Example 37, N-(3-(3-(3,5-difluoro-2-methoxyphenyl)-1H-pyrrolo[2,3-b]pyridin-5-yl)phenyl)pent-2-ynamide], the IC50 [1, 3] is reported as > 100 nM and the IC50 [2, 4] is reported as > 100 nM.
With `C=CC(=O)Nc1cc(-c2cnc3[nH]cc(-c4cc(F)cc(F)c4OC)c3c2)ccc1F` [Example 38, N-(5-(3-(3,5-difluoro-2-methoxyphenyl)-1H-pyrrolo[2,3-b]pyridin-5-yl)-2-fluorophenyl)acrylamide] the IC50 [1, 3] was > 100 nM and the IC50 [2, 4] was > 100 nM.
In the case of `C=CC(=O)Nc1cc(-c2cnc3[nH]cc(-c4cc(F)cc(F)c4OC)c3c2)c(F)cc1F` [Example 39, N-(5-(3-(3,5-difluoro-2-methoxyphenyl)-1H-pyrrolo[2,3-b]pyridin-5-yl)-2,4-difluorophenyl)acrylamide], the IC50 [1, 3] is reported as > 100 nM and the IC50 [2, 4] is reported as > 100 nM.
`C=CC(=O)Nc1ccc(F)c(-c2cnc3[nH]cc(-c4cc(F)cc(F)c4OC)c3c2)c1` [Example 40, N-(3-(3-(3,5-difluoro-2-methoxyphenyl)-1H-pyrrolo[2,3-b]pyridin-5-yl)-4-fluorophenyl)acrylamide] was tested, and the IC50 [1, 3] was > 100 nM and the IC50 [2, 4] was > 100 nM.
In the case of `C=CC(=O)Nc1cc(-c2cnc3[nH]cc(-c4cc(F)cc(F)c4OC)c3c2)ccc1Cl` [Example 41, N-(2-chloro-5-(3-(3,5-difluoro-2-methoxyphenyl)-1H-pyrrolo[2,3-b]pyridin-5-yl)phenyl)acrylamide], the IC50 [1, 3] is reported as > 100 nM and the IC50 [2, 4] is reported as > 100 nM.
`C=CC(=O)Nc1cccc(-c2cnc3[nH]cc(-c4cc(F)cc(F)c4OC)c3c2)n1` [Example 42, N-(6-(3-(3,5-difluoro-2-methoxyphenyl)-1H-pyrrolo[2,3-b]pyridin-5-yl)pyridin-2-yl)acrylamide] was tested, and the IC50 [1, 3] was > 100 nM and the IC50 [2, 4] was > 100 nM.
In the case of `CN(C)/C=C/C(=O)Nc1cccc(-c2cnc3[nH]cc(Cl)c3c2)c1` [Example 44, (E)-N-(3-(3-chloro-1H-pyrrolo[2,3-b]pyridin-5-yl)phenyl)-3-(dimethylamino)acrylamide], the IC50 [1, 3] is reported as > 1000 nM.
`C=CC(=O)Nc1cc(-c2cnc3[nH]cc(Cl)c3c2)ccc1Cl` [Example 46, N-(2-chloro-5-(3-chloro-1H-pyrrolo[2,3-b]pyridin-5-yl)phenyl)acrylamide] was tested, and the IC50 [1, 3] was > 1000 nM and the IC50 [2, 4] was > 1000 nM.
In the case of `CC/C=C/C(=O)Nc1cc(-c2cnc3[nH]cc(Cl)c3c2)ccc1Cl` [Example 47, (E)-N-(2-chloro-5-(3-chloro-1H-pyrrolo[2,3-b]pyridin-5-yl)phenyl)pent-2-enamide], the IC50 [1, 3] is reported as > 1000 nM and the IC50 [2, 4] is reported as > 1000 nM.
For `C=CC(=O)Nc1cc(-c2cnc3[nH]cc(Cl)c3c2)cc(F)c1F` [Example 64, N-(5-(3-chloro-1H-pyrrolo[2,3-b]pyridin-5-yl)-2,3-difluorophenyl)acrylamide], the IC50 [2, 4] was > 100 nM.
`CC#CC(=O)Nc1cc(-c2cnc3[nH]cc(Cl)c3c2)ccc1F` [Example 88, N-(5-(3-chloro-1H-pyrrolo[2,3-b]pyridin-5-yl)-2-fluorophenyl)but-2-ynamide] was tested, and the IC50 [2, 4] was < 100 nM.
“(E)-N-(2-chloro-5-(3-methyl-1H- pyrrolo[2,3-b]pyridin-5- yl)phenyl)pent-1-enamide [Example 14]” was tested, and the IC50 [2, 4] was > 100 nM.
